Experimental data from patent US9125855B2, “Prevention of Salmonella recrudescense” (priority 2011, dated 2015).

Columns and labels:
[1] = tested on: Salmonella Typhimurium in PAM; experiment: Intracellular survival assay in PAM; assay type: cell-based, porcine; details: for intracellular proliferation of Salmonella Typhimurium in PAM: 1 μM
Excerpt: Porcine pulmonary alveolar macrophages (PAM) were isolated by broncho-alveolar washes from lungs of euthanized 3 to 4 week old piglets, obtained from a Salmonella-negative farm, as described previously (Dom et al., 1992). The isolated cells were pooled and frozen in liquid nitrogen until further use. Prior to seeding the cells, frozen aliquots of approximately 10^8 cells per ml were thawed and washed 3 times in Hank's buffered salt solution with Ca^2+ and Mg^2+ (HBSS+, Gibco) with 10% (v/v) fetal calf serum (FKS, Hyclone, Cramlington, England) at 4° C. Finally, these cells were cultured in Roswell Park Memorial Institute medium (RPMI, Gibco) containing 10% (v/v) FKS, 1% (v/v) L-glutamine (Gibco), 1% (v/v) sodium pyruvate (Gibco), 1% (v/v) MEM non essential amino acids (NEAA, Gibco) and 1% (v/v) penicillin-streptomycin (Gibco).
(§1) The number of viable bacteria was assessed 24 hours after infection.
Following the IVET screening, the intracellular survival assay was repeated with Salmonella Typhimurium ΔscsA and ΔcbpA and compared to the WT.

[2] = tested on: Salmonella Typhimurium in IPEC-J2 cells; experiment: Intracellular survival assay in IPEC-J2 cells; assay type: cell-based, porcine
Method: The polarized intestinal porcine epithelial (IPEC-J2) cell line is derived from jejunal epithelia isolated from a neonatal piglet (Rhoads et al., 1994; Schierack et al., 2006).
as §1

[3] = tested on: Salmonella Typhimurium in IPEC-J2 cells; experiment: Invasion assay in IPEC-J2 cells; assay type: cell-based, porcine; details: for invasion of Salmonella Typhimurium in IPEC-J2 cells: 1 μM
Method: (§2) For the invasion assays, PAM and IPEC-J2 cells were seeded in 24-well plates at a density of approximately 5×10^5 cells and 10^5 cells per well, respectively. PAM were allowed to attach for at least 2 hours and IPEC-J2 cells were allowed to grow for at least 24 hours. […] After 24 hours the invasion assay was performed as described by Boyen et al., 2009a. Finally the PAM and IPEC-J2 cells were washed 3 times and lysed for 10 min with 1% (v/v) Triton X-100 or 0.2% (w/v) sodium deocxycholate (Sigma-Aldrich), respectively and 10-fold dilutions were plated on BGA plates.

[4] = tested on: Salmonella Typhimurium in PAM; experiment: Invasion assay in PAM; assay type: cell-based, porcine; details: for invasion of Salmonella Typhimurium in PAM: 1 μM
Method: as §2

[5] = tested on: Salmonella Typhimurium in PAM; details: 1 μM, 24 hours; cited from earlier work
[6] = tested on: Salmonella Typhimurium WT; experiment: Effect of cortisol on the growth of Salmonella Typhimurium; details: 0.001 to 100 μM, LB broth, 24 hours
Method: Therefore, Salmonella Typhimurium was grown in LB broth whether or not supplemented with cortisol. The number of CFU per ml was determined at different time points by titration of 10-fold dilutions of the bacterial suspensions on BGA. After incubation for 24 hours at 37° C., the number of colonies was counted.

[7] = tested on: Salmonella Typhimurium infected PAM; experiment: iTRAQ comparative proteome study of cortisol treated Salmonella infected PAM; assay type: cell-based, porcine; details: 1 μM cortisol
Excerpt: We used a gel-free approach called isobaric tags for relative and absolute quantification (iTRAQ) in which four different isobaric labels are used to tag N-termini and lysine side chains of four different samples with four different isobaric reagents. Upon collision-induced dissociation during MS/MS, the isobaric tags are released, which results in four unique reporter ions that are used to quantify the proteins in the four different samples (Ross et al., 2004).
Sample preparation: PAM were isolated and cultured as described in Verbrugghe et al. (2011), they were seeded in 175 cm^2 cell culture flasks at a density of approximately 5×10^7 cells per flask and were allowed to attach for 2 hours. Subsequently, PAM were washed 3 times with Hank's buffered salt solution with Ca^2+ and Mg^2+ (HBSS+, Gibco) and a gentamicin protection invasion assay was performed as described by Boyen et al. (2009a). Briefly, Salmonella was inoculated into the cell culture flasks at a multiplicity of infection (MOI) of 10:1. To synchronize the infection, the inoculated flasks were centrifuged at 365×g for 10 min and incubated for 30 min at 37° C. under 5% CO2. […] The supernatant was held on ice until further use and the pellet was dissolved and sonicated (6 times 30 sec), using an ultrasonic processor XL 2015 (Misonix, Farmingdale, N.Y., USA), in reagent 3 of the Ready Prep Sequential extraction kit (Bio-Rad, Hercules, Calif., USA). […] Protein concentration was determined using the Bradford Protein Assay (Thermo Fisher Scientific, Rockford, USA) according to the manufacterer's instructions.
Trypsin digest and iTRAQ labeling: Digest and labeling of the samples (100 μg proteins per sample) with iTRAQ reagents was performed according to the manufacturer's guidelines (AB Sciex, Foster City, Calif., USA). Individual samples of cortisol treated or untreated PAM were analyzed in the same run, making paired comparisons possible and minimizing technical variation. […] Each fraction was analyzed by nano LC-MSMS as described by Bijttebier et al. (2009). […]

[8] = tested on: PAM; experiment: Cytotoxicity assay (LDH); assay type: cell-based, porcine; details: 0.001 to 100 μM
Method: Therefore PAM were seeded in a 96-well microplate at a density of approximately 2×10^5 cells per well and were allowed to attach for at least 2 hours. The IPEC-J2 cells were seeded and allowed to grow for at least 24 hours in a 96-well microplate at a density of approximately 2×10^4 cells per well in Dulbecco's modified Eagle's is medium (DMEM, Gibco) supplemented with 46.5% (v/v) Ham's F12 medium (Gibco), 5% (v/v) FKS and 1% insulin-transferrin-selenium-A supplement (ITS, Gibco).
The LDH test was used in accordance to the manufacturer's instructions and the absorbance was measured at 492 nm using a microplate ELISA reader (Multiscan M S, Thermo Labsystems, Helsinki, Finland).

[9] = tested on: Salmonella Typhimurium WT; experiment: Effect of cortisol on the gene expression of Salmonella Typhimurium (microarray); details: 1 μM, stationary and logarithmic phase culture
Method: Two OD600 nm units of each culture were incubated in one-fifth culture volume 5% (v/v) phenol pH 4.3/95% (v/v) ethanol solution for 30 min on ice to stabilize the RNA. Subsequently, the RNA was extracted using the SV Total RNA purification kit (Promega, Leiden, the Netherlands).
Each condition was tested in triplicate and transcriptomic techniques involved Salmonella Typhimurium microarrays constructed at the Institute of Food Research, Norwich, UK, as described previously (Clements et al., 2002; Yberg et al., 2006). The microarray used in this study was the whole-genome SALSA cDNA microarray covering 5080 genes and data analysis was performed as described by Eriksson-Ygberg et al., 2006.

[10] = tested on: Salmonella Typhimurium in PAM; experiment: Contribution of the cytoskeleton to cortisol induced intracellular proliferation in PAM; assay type: cell-based, porcine; details: 2 μM cytochalasin D and/or 20 μM nocodazole, 1 μM cortisol, 24 hours
Method: Therefore, PAM is were seeded in 24-well plates at a density of approximately 5×10^5 cells per well, allowed to attach for 2 hours and infected with Salmonella, as described in the iTRAQ analysis.

[11] = tested on: pig; details: 2 mg dexamethasone per kg body weight; cited from earlier work

Structure (SMILES): CNC[C@H](O)c1ccc(O)c(O)c1 [Epinephrine, epinephrine]
- intracellular proliferation of Salmonella Typhimurium in PAM [1]: did neither affect
- intracellular proliferation of Salmonella Typhimurium in IPEC-J2 cells ([2]; 1 μM): did neither affect
- invasion of Salmonella Typhimurium in IPEC-J2 cells [3]: did neither affect
- invasion of Salmonella Typhimurium in PAM [4]: did neither affect

Structure (SMILES): C[C@]12CCC(=O)C=C1CC[C@@H]1[C@@H]2[C@@H](O)C[C@@]2(C)[C@H]1CC[C@]2(O)C(=O)CO [cortisol, Cortisol]
- number of intracellular Salmonella Typhimurium bacteria compared to untreated PAM [5]: significant increase
- intracellular proliferation of Salmonella Typhimurium in treated PAM in comparison to non-treated cells ([1]; 24 hours): higher
- concentration leading to a significant dose-dependent increase of the number of intracellular bacteria ([1]; PAM, 24 hours): 100 nM
- intracellular proliferation of Salmonella Typhimurium in IPEC-J2 cells ([2]; 0.001 to 100 μM): did neither affect
- invasion in IPEC-J2 cells ([3]; 0.001 to 100 μM): did neither affect
- growth of Salmonella [6]: did not affect
- number of proteins more abundant in cortisol treated PAM [7]: 21
- number of proteins with higher levels in untreated PAM [7]: Two
- number of proteins with recurrent expressional differences, treated vs untreated infected PAM [7]: 23
- invasion in PAM ([4]; 0.001 to 100 μM): did neither affect
- effect on cell viability [8]: did not exert a notable effect
- gene expression levels by microarray analysis [9]: did not significantly affect

Structure (SMILES): C=C1[C@@H](C)[C@H]2[C@H](Cc3ccccc3)NC(=O)[C@]23[C@H](OC(C)=O)/C=C/[C@@](C)(O)C(=O)[C@@H](C)C/C=C/[C@H]3[C@@H]1O [cytochalasin D]
- cortisol induced increased survival of the bacterium in PAM [10]: inhibition

Structure (SMILES): C[C@@H]1C[C@H]2[C@@H]3CCC4=CC(=O)C=C[C@]4(C)[C@@]3(F)[C@@H](O)C[C@]2(C)[C@@]1(O)C(=O)CO [dexamethasone]
- immunosuppression of the pig [11]: does not cause immunosuppression
- effect on cell viability [8]: did not exert a notable effect

Structure (SMILES): NCCc1ccc(O)c(O)c1 [dopamine]
- intracellular proliferation of Salmonella Typhimurium in PAM [1]: did neither affect
- intracellular proliferation of Salmonella Typhimurium in IPEC-J2 cells ([2]; 1 μM): did neither affect
- invasion of Salmonella Typhimurium in IPEC-J2 cells [3]: did neither affect
- invasion of Salmonella Typhimurium in PAM [4]: did neither affect

Structure (SMILES): COC(=O)Nc1nc2ccc(C(=O)c3cccs3)cc2[nH]1 [nocodazole]
- cortisol induced increased survival of the bacterium in PAM [10]: inhibition

Structure (SMILES): NC[C@H](O)c1ccc(O)c(O)c1 [norepinephrine]
- intracellular proliferation of Salmonella Typhimurium in PAM [1]: did neither affect
- intracellular proliferation of Salmonella Typhimurium in IPEC-J2 cells ([2]; 1 μM): did neither affect
- invasion of Salmonella Typhimurium in IPEC-J2 cells [3]: did neither affect
- invasion of Salmonella Typhimurium in PAM [4]: did neither affect
